The structures appear in SMILES notation. Where “and” joins values, the source holds several entries; their conditions need not be identical. Identical values can stand only once.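 Compound exposure: 48 hours, 5 concentrations, 96-well plates. GI50: concentration for 50% inhibition of growth. TGI denotes the concentration required for complete inhibition of growth.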 Where a SMILES comes first, the peptide text is derived from it. [ ]: non-standard residue; d: D form. The star is where a group is joined. X13 = OC[C@H](CC1CCCCC1)N*; dIva = CC[C@@](C)(N)C(=O)O; Aib = CC(C)(N)C(=O)O

For the experiment, the system named is MDA-MB-468 breast. The experiment can be described thus: NCI-60 cell line screen, 48 h.
For `CC(C)(C)c1nn(-c2ccccc2)c2c1C(=O)CSC(c1ccccc1Cl)N2` (stereo not given), the GI50 is 1010 nM and the TGI came to 12100 nM.
In the case of `COc1cc(C)c(Cl)cc1C1=NN(c2ccc(S(N)(=O)=O)cc2)C(/C=C/c2ccccc2)C1` (stereo not given), the GI50 is 2140 nM and the TGI was found to be 5790 nM.
The like results for `Cc1cc2nc3c4cc(N)ccc4n(CCN(C)C)c3nc2cc1C` were, in that order, 1040 nM and 2790 nM.
With `CCn1c(CN2CCN(Cc3ccccc3)CC2)nc2cc(NC(=O)c3cccs3)ccc21`, the GI50 is 6160 nM and the TGI turned out to be 47100 nM.
Consider `COc1cc(NC2=C(Cl)C(=O)c3nc(C)ccc3C2=O)cc(OC)c1`, for which the GI50 is 1230 nM and the TGI is 2570 nM.
Take `COc1ncc(-c2ccc3nccc(-c4ccnnc4)c3c2)cc1NS(=O)(=O)c1ccc(F)cc1F`: the GI50 was 2.7 nM and < 10 nM; the TGI is 26.6 nM and 15.8 nM.
For `Cn1c(/C=C(\C#N)c2ccccc2)nc2c(N3CCOCC3)nc(Cl)nc21`, the GI50 was 688 nM and the TGI turned out to be 2190 nM.
With `C=CC(=O)N1CCN(c2nc(=O)n(-c3c(C)ccnc3C(C)C)c3nc(-c4c(O)cccc4F)c(F)cc23)[C@@H](C)C1`, the GI50 was 22000 nM and the TGI is more than 81100 nM.
As to `Cc1c(-c2c(-c3ccc(F)o3)sc3ncnc(O[C@H](Cc4ccccc4OCc4ccnn4CC(F)(F)F)C(=O)O)c23)ccc(OCCN2CCN(C)CC2)c1Cl`, the GI50 was 25.3 nM and the TGI was 105 nM.
For `C/C(=N\Nc1cc(C)c2cc(C)ccc2n1)c1ccccn1`, the GI50 is 65.4 nM and the TGI amounted to 318 nM.
Consider `C#CCC(Cc1cnc2nc(N)nc(N)c2n1)c1ccc(C(=O)N[C@@H](CCC(=O)O)C(=O)O)cc1` (stereo not given in full), for which the GI50 was less than 10 nM and the TGI is more than 20400 nM.
The like results for `C/C(=N/Nc1nc2ccccc2n1C)c1ccccn1` were, in that order, 31.9 nM and 239 nM.
Take `O=C1/C(=C/c2ccccc2)CN(C(=O)c2cccnc2)C/C1=C\c1ccccc1`: the GI50 was 1820 nM and the TGI was 4240 nM.
The like results for `O=c1c2ccccc2n(C[C@H]2CO2)c2ccccc12` were, in that order, 1830 nM and 3810 nM.
As for `O=C1C(=O)c2ccccc2C(O)=C1CC=C(Br)Br`, the GI50 is 11400 nM and the TGI amounted to 41800 nM.
As to `COc1ccc(-c2nnc(SCc3ccc(O)c4ncccc34)n2-c2ccccc2)cc1`, the GI50 was 810 nM and the TGI amounted to 6570 nM.
`CCc1c(C#N)c(S[C@@H](C(N)=O)c2ccccc2)nc(N(C)C)c1C#N`: the GI50 was 6140 nM and the TGI was more than 100000 nM.
On to `CCC/C(=N/N=C(N)N)c1ccc(NC(=O)c2cc3cc(OC)ccc3[nH]2)cc1`, for which the GI50 is 2340 nM and the TGI came out at 12100 nM.
With `Nc1c(Br)cc(Br)c2c1[nH]c(=O)c1ccccc12`, the GI50 is 550 nM and the TGI came to 8900 nM.
Regarding `CC1(C)N=C(N)N=C(N)N1c1ccc(OCCCCOc2ccc(S(=O)(=O)F)cc2)c(Cl)c1`, the GI50 was 188 nM and the TGI was 8800 nM.
For the compound `O=C(CNc1ccc2c(c1)C(=O)c1ccccc1C2=O)Nc1ccc2c(c1)C(=O)c1ccccc1C2=O`, the GI50 was 896 nM and the TGI was 2480 nM.
Turning to `O=C1c2cc3c(cc2-c2c1c1ccc(Cl)cc1c(=O)n2CCCNCCO)OCO3`, the GI50 is 85 nM and the TGI was found to be 2350 nM.
`CC1=C2C[C@H]3[C@@H](CC[C@@H]4CC(NS(C)(=O)=O)CC[C@@]43C)[C@@H]2CC[C@@]2(C1)O[C@@H]1C[C@H](C)CN[C@H]1[C@H]2C` (stereo not given in full): the GI50 is 2000 nM and the TGI was 5620 nM.
Take `C=C(C)[C@@H]1CC[C@]2(COC)CC[C@]3(C)[C@H](CC[C@@H]4[C@@]5(C)CCCNC(C)(C)[C@@H]5CC[C@]43C)[C@@H]12`: the GI50 is 1570 nM and the TGI is 3180 nM.
The like results for `O=[N+]([O-])c1ccc(-c2nnc(SCc3ccc(O)c4ncccc34)o2)cc1` were, in that order, 396 nM and more than 100000 nM.
The corresponding values for `O=C(/C=C/c1cccnc1)NCCCCC1CCCN(C(=O)c2ccccc2)C1` (stereo not given) are 13600 nM and more than 100000 nM.
The like results for `COC(=O)C1=C(C(=O)ON)C2C=CC1(C(Cc1ccccc1)Nc1ccccc1)O2` (stereo not given) were, in that order, 1420 nM and 2800 nM.
`CC[C@H](Nc1nc(NCc2cnc(C)cc2C)c2ncn(C(C)C)c2n1)[C@@H](C)O`: the GI50 is 192 nM and the TGI came out at 470 nM.
The corresponding values for `NC(N)=N/N=C\c1cccc(OCc2ccccc2)c1` are 1340 nM and 2730 nM.
For the compound `CCOC(=O)N1CCc2cc(OC)c(OC)c3c2c1cc1cc(OC)c(OC)cc13`, the GI50 is 3170 nM and the TGI is more than 100000 nM.
In the case of `CC[C@@](C)(NC(=O)C(C)(C)NC(=O)[C@@H](NC(=O)[C@@H]1CCCN1C(=O)C(C)(C)NC(=O)[C@H](CC(C)C)NC(=O)CNC(=O)C(C)(C)NC(=O)[C@@H](NC(=O)C(C)(C)NC(=O)[C@H](CCC(N)=O)NC(=O)[C@H](C)NC(=O)C(C)(C)NC(=O)[C@H](C)NC(=O)C(C)(C)NC(=O)[C@H](C)NC(=O)C(C)(C)NC(C)=O)C(C)C)C(C)C)C(=O)N[C@@H](CCC(N)=O)C(=O)N[C@@H](CCC(N)=O)C(=O)N[C@H](CO)CC1CCCCC1` (Ac-[Aib]A[Aib]A[Aib]AQ[Aib]V[Aib]GL[Aib]PV[Aib][dIva]QQ-X13), the GI50 is 747 nM and the TGI was 4080 nM.
For `COc1ccccc1CCN=C1NC(=O)/C(=C/c2ccc3ncccc3c2)S1`, the GI50 was 4590 nM and the TGI was found to be 16400 nM.
Turning to `COc1cc(-c2nn(-c3cccc(NC(=O)Nc4cc(C(F)(F)F)cc(C(F)(F)F)c4)c3)cc2-c2ccncc2)ccc1Cl`, the GI50 was 236 nM and the TGI came out at 2310 nM.
Regarding `Ic1ccccc1-c1ccccc1`, the GI50 is 85000 nM and the TGI is more than 100000 nM.
The corresponding values for `C=C1C(=O)O[C@H]2[C@H]1CC/C(Cn1cc(-c3cc(C(F)(F)F)cc(C(F)(F)F)c3)nn1)=C\CC[C@@]1(C)O[C@@H]21` are 424 nM and 1750 nM.
For `CCCc1cc2c(=O)c(C(=O)OC)c[nH]c2cc1N(CC)CC`, the GI50 was 24400 nM and the TGI was more than 100000 nM.
For the compound `CCOc1ccc(-c2nonc2NC(=O)c2cccc(C)c2)cc1OCC`, the GI50 was 17600 nM and the TGI was found to be 48800 nM.
Consider `COc1ccc(/C=C\c2cc(OC)c(OC)c(OC)c2)cc1OC(=O)c1cccc(Cn2cc(CCOC(=O)[C@H](N)Cc3cn(C)c4ccccc34)nn2)c1`, for which the GI50 is less than 10 nM and the TGI was 3570 nM.
For `CC(C)[C@H](CO)Nc1nc(Nc2ccc(C(=O)NCCNS(=O)(=O)c3cccc4c(N(C)C)cccc34)c(Cl)c2)c2ncn(C(C)C)c2n1`, the GI50 was 1690 nM and the TGI is 6750 nM.
Regarding `Cc1ccccc1N=Nc1ccc(NC(=O)c2ccnn2C)c(C)c1`, the GI50 is 3840 nM and the TGI came out at 70600 nM.
Regarding `COC(=O)c1c2c(c(C)[n+]([O-])c1C)C(=O)C=C(NCc1ccc(F)c(Cl)c1)C2=O`, the GI50 was 200 nM and the TGI was found to be 712 nM.
As for `O=C1NC(O)C(c2c[nH]c3ccccc23)=C1c1c[nH]c2ccccc12` (stereo not given), the GI50 was more than 25000 nM and the TGI is more than 25000 nM.
With `Fc1ccc2c(c1)c(-c1nc(-c3c[nH]c4ncccc34)cs1)cn2CCCN1CCCCC1`, the GI50 is 1610 nM and the TGI was found to be 3230 nM.
For the compound `COC1CC2CCC(C)C(O)(O2)C(=O)C(=O)N2CCCCC2C(=O)OC(C(C)CC2CCC(O)C(OC)C2)CC(=O)C(C)C=C(C)C(O)C(OC)C(=O)C(C)CC(C)/C=C/C=C/C=C1C` (stereo not given), the GI50 is less than 5 nM and the TGI came out at 7350 nM.
For `CC(C)(O)CS(=O)(=O)Nc1ccc2c(c1)CCN(C(=O)COc1cccnc1)C2`, the GI50 is more than 100000 nM and the TGI is more than 100000 nM.

For the origin of these results see PubChem BioAssay (NCI).
